Measured values from ChEMBL document CHEMBL5120887, “Hybrid Diterpenic Meroterpenoids from an Endophytic Penicillium sp. Induced by Chemical Epigenetic Manipulation” (J Nat Prod, 2022).

Molecular target: Acetylcholinesterase (Homo sapiens, UniProt P22303)
Experiment: Inhibition of AChE in human Erythrocyte incubated for 20 mins by Ellman reagent based spectrophotometry
Assay type: cell-based

Chain of Acetylcholinesterase (P22303 whole entry): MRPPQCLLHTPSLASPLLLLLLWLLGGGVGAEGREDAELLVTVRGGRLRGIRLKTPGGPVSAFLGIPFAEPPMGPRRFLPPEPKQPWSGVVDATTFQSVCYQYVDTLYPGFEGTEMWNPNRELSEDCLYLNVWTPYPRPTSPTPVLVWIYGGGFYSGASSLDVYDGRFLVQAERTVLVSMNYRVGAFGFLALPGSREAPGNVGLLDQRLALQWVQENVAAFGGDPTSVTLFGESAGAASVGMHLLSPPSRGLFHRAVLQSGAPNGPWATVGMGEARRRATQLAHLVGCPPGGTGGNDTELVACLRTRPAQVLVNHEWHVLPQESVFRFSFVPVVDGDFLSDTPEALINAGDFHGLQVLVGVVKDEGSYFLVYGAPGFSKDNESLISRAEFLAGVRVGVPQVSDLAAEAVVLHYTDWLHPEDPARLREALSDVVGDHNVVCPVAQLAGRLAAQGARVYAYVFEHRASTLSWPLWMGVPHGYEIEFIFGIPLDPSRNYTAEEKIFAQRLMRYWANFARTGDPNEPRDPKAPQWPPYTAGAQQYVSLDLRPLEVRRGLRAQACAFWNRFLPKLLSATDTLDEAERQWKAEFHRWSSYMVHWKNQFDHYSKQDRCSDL

For `C=C(C)[C@]1(O)CC[C@@]2(C)C3=Cc4c(cc(-c5cccnc5)oc4=O)O[C@]3(C)[C@@H](O)C[C@@H]2[C@@]12CCC(=O)OC2`, the IC50 was 13.9 µM.
